Experimental findings from patent publication US8847018B2, “Plants tolerant to HPPD inhibitor herbicides” (Bayer CropScience AG, priority 2009, dated 2014) are described below.

The subject of test [1] is T0 tobacco plants containing FMP22t. The test is described as follows: Response of T0 tobacco plants to tembotrione. The note with it: 100 g AI/ha, two weeks after treatment. It is filed as in vivo, Nicotiana tabacum. Here is the method:
(§1) As an example, rooted plants containing the T-DNA PromCaMV35S-OTP-HIS6-FMP22t-TerCaMV35S or containing the T-DNA PromCaMV35S-OTP-HIS6-FMP23t-TerCaMV35S, are transferred to the greenhouse under standard growth conditions. Following a period of acclimation of two weeks, the T0 plants are treated with a mixture containing 100 g tembotrione/ha prepared from a WP20 (wettable powder 20%) formulation supplemented with ammonium sulfate and methyl ester raps oil.
(§2) Two weeks after the treatment, the symptoms due to the application of the herbicides are evaluated. The plants are classified in four categories. The treated plants evaluated as “0” are looking like the untreated tobacco plants. The plants evaluated as “1” display temporarily light bleaching phenotype due to the application of the herbicides. The plants evaluated as “2” display permanent light to strong bleaching symptoms. Finally the plants evalutated as “3” are looking like wild type tobacco plants submitted to the same treatment.

Test [2] has as its system T0 tobacco plants containing FMP23t. Put plainly: Response of T0 tobacco plants to tembotrione. It is filed as in vivo, Nicotiana tabacum. The note with it: 100 g AI/ha, two weeks after treatment. As for the experimental part:
as §1, §2

Test [3] relates to tobacco calli containing HPPD SEQ ID No. 11 (Arabidopsis thaliana). The test is described as follows: Rooting of calli on media with tembotrione. It is filed as cell-based, Nicotiana tabacum. The note with it: calli containing SEQ ID No. 11; 6 to 12 weeks. Here is the method: (§3) The leaf disks were co-cultivated for 2 days with Agrobacterium tumefaciens cells containing either the binary vector FMP22ebv, FMP23ebv or AtHPPDbv. Then the leaf disks were transferred to a media allowing the regeneration of shoots for 6 weeks on MS (Musharige and Skoog, (1962), Physiol Plant 15(3): 473-497) media supplemented with BAP ([…]; Benzylaminopurine), carbenicillin ([…]), cefotaxine (250 mg/mL), kanamycin (75 mg/mL) and tembotrione (10^−6 M)
(§4) Regenerated calli were transferred on media to induce the development of roots for 6 to 12 weeks: MS (½), supplemented with carbenicillin (250 mg/mL), cefotaxine (250 mg/mL), kanamycin (75 mg/mL), and tembotrione (10^−6 M).
(§5) Regenerated shoot calli from a cell transformed with a nucleic acid sequence encoding an HPPD comprising SEQ ID No. 11 (Arabidopsis thaliana) SEQ ID No. 21 or SEQ ID No. 7 (Rhodococcus) were transferred to a media inducing root growth which media was further supplemented with the HPPD inhibitor tembotrione for 6 to 12 weeks.

The test system of test [4] is tobacco calli containing HPPD SEQ ID No. 7 (Rhodococcus). Put plainly: Rooting of calli on media with tembotrione. It is filed as cell-based, Nicotiana tabacum. The note with it: calli containing SEQ ID No. 7; 6 to 12 weeks. As for the experimental part: as §3, §4, §5
Test [5] deals with tobacco calli containing HPPD SEQ ID No. 21 (Rhodococcus). The test is described as follows: Rooting of calli on media with tembotrione. It is filed as cell-based, Nicotiana tabacum. The note with it: calli containing SEQ ID No. 21; 6 to 12 weeks. Here is the method:
as §3, §4, §5

Test [6] has as its system Rhodococcus HPPD SEQ ID No. 19 (FMP23e). Put plainly: biochemical. The test is classed as biochemical, Rhodococcus sp. (strain RHA1), isolate ro02040. The note with it: SEQ ID No. 19.
The target of test [7] is T1, Arabidopsis thaliana HPPD SEQ ID No. 10 (Arabidopsis thaliana, UniProt P93836).
T1 sequence (P93836 with tags, fused parts or gaps): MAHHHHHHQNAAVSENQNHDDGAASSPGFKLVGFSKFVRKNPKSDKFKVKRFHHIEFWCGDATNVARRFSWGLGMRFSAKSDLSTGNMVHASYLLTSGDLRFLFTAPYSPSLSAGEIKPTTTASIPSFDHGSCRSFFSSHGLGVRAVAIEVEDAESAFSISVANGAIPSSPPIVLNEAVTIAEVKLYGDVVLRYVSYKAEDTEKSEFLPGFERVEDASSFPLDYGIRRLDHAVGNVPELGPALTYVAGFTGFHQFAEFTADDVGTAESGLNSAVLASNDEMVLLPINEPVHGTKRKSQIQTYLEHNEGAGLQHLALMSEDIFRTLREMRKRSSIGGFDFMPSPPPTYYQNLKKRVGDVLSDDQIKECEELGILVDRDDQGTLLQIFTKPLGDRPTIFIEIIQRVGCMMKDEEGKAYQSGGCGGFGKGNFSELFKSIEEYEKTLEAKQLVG
The test is described as follows: HPLC assay of HPPD in vitro kinetic properties.
Protocol: All assays were started by the addition of HPPD enzyme to the assay mixture and stopped at a series of times between 0 and 240 s by addition of 200 μl of the reaction mixture to reaction assay tubes containing 20 μl 10% perchloric acid. Precipitated protein was pelleted by a 5 minute centrifugation at 10,000 g. […] For Km and Vmax value determinations the initial rates of the HPPD reaction at different substrate concentrations were determined from plots of HGA formed versus time and fitted to the Michaelis-Menten equation for unireactant enzymes using the ID Business Solutions Ltd. (idbs.com) XLfit software suite.

The structures appear in SMILES notation.

For orientation: Ki means the equilibrium dissociation constant of an inhibitor or competing ligand from its target.

As to `CS(=O)(=O)c1ccc(C(=O)C2C(=O)CCCC2=O)c(Cl)c1COCC(F)(F)F` [Tembotrione, 2-[2-chloro-4-(methylsulfonyl)-3-[(2,2,2,-tri-fluoroethoxy)methyl]benzoyl]-1,3-cyclo-hexanedione], in test [1], the “number of plants in category 0 (looking like untreated tobacco plants)” value was found to be 4, the “number of plants in category 1 (temporarily light bleaching)” value is recorded as 2, the “number of plants in category 2 (permanent light to strong bleaching)” value stood at 5 and the “number of plants in category 3 (like treated wild type tobacco plants)” value was determined as 3. In test [2], the “number of plants in category 0 (looking like untreated tobacco plants)” value turned out to be 5 and the “number of plants in category 3 (like treated wild type tobacco plants)” value was 4. For the same compound, the “root growth on media with tembotrione” value in test [3] is given as “On none of the events containing the HPPD defined by SEQ ID No. 11 (Arabidopsis thaliana) or none transformed calli, root growth was observed”. Besides, in test [4], the “% Elongation & rooting on 10^−6 M tembotrione” value came out at 65%; the “root growth on media with tembotrione” value is “clearly developed numerous and healthy roots”. In test [5], the “% Elongation & rooting on 10^−6 M tembotrione” value was found to be 63%; the “root growth on media with tembotrione” value was “clearly developed numerous and healthy roots”. In addition, the pI50 in test [6] (2 mM HPP, 3 minutes incubation) was 5.1. For the same compound, in test [6] (5.0 × 10^−6 M inhibitor), the “percentage of inhibition compared to activity in absence of the inhibitor” value came out at 70%. Besides, the Ki in test [7] turned out to be 15 nM.
